The record followed here is US8575193B2, “N-substituted tetrahydroisoquinoline/isoindoline hydroxamic acid compounds” (4SC AG, priority 2008, dated 2013).

Test [1] has as its target T1, rHDAC6 (Homo sapiens, UniProt Q9UBN7).
T1 construct: FLAG; made in house
T1 sequence (Q9UBN7 1-1215): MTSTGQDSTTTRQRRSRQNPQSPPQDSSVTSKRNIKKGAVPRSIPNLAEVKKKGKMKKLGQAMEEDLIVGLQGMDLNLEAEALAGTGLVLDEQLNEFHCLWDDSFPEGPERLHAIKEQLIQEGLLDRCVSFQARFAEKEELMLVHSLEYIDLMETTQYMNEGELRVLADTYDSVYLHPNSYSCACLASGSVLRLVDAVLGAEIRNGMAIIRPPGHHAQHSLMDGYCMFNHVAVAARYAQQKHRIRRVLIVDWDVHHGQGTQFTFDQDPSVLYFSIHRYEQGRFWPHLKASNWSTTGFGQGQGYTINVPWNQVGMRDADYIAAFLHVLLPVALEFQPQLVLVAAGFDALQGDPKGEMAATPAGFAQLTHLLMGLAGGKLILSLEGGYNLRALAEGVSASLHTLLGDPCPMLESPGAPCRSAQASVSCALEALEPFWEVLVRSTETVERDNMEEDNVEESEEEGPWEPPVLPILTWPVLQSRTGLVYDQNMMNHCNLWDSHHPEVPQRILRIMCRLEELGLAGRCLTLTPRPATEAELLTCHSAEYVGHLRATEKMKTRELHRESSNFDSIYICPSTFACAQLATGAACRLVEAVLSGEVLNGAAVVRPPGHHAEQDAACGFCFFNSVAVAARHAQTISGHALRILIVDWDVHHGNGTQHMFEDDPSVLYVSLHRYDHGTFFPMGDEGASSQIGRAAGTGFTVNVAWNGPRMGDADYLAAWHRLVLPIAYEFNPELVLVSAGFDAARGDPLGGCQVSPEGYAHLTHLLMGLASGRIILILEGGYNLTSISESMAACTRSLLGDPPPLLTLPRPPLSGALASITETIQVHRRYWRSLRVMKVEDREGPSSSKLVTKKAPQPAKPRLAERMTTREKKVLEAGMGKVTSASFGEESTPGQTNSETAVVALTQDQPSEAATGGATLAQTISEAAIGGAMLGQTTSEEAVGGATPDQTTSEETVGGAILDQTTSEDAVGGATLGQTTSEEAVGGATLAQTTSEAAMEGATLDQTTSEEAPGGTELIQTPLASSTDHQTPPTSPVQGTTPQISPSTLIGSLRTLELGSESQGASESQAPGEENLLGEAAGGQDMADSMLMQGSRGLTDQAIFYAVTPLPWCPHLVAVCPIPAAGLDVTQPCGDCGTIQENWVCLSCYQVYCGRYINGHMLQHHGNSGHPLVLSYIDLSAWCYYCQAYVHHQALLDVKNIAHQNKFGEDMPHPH
Nature of the test: rHDAC6 enzymatic assay (recombinant FLAG-HDAC6). The test is classed as biochemical. Particulars: FLAG-HDAC6 from HEK293; 10 μM Ac-NH-GGK(Ac)-AMC, 3 h at 30° C.; read-out: rHDAC6 [pIC50] (converted). An excerpt:
(§1) Human HDAC1 and HDAC6 fused with the FLAG epitope are stably expressed in HEK293 cells while human HDAC3 and HDAC8 fused with the FLAG epitope are overexpressed in baculo-virus infected insect (Sf21) cells. To ensure stability of FLAG-HDAC3 the SMRT protein is co-expressed in the corresponding insect cells. […] FLAG-HDAC3 and FLAG-HDAC8 are also purified by M2-agarose affinity chromatography after mass cultivation of the insect cells and cell lysis.
(§2) The HDAC enzyme activity assay is done as described by Wegener et al. (Chem. & Biol. 10, 61-68, 2003). Briefly 40 μl of a 1:100 dilution (=0.4 μl) nuclear HeLa extract (mixture of class I and II HDACs), 29 μl enzyme buffer (15 mM Tris HCl pH 8.1, 0.25 mM EDTA, 250 mM NaCl, 10% v:v glycerol) and 1 μl test compound are added to a well of a 96 well microtiter plate and reaction started by addition of 3 μl substrate (Ac-NH-GGK(Ac)-AMC; final concentration 25 μM and final volume […]). […] After incubation at room temperature for further 40 min, fluorescence is measured using a Wallac Victor 1420 multilabel counter (Ex 355 nm, Em 460 nm) for quantification of AMC (7-amino-4-methylcoumarin) generated by trypsine cleavage of the deacetylated peptide. […] The corresponding pIC50 values of the compounds for HDAC inhibitory activity are determined from the concentration-effect curves by means of non-linear regression (Graphpad Prism software).
(§3) The HDAC1, HDAC3 and HDAC6 enzymatic assays are done with slight modifications with recombinant FLAG-HDAC1 and FLAG-HDAC6 proteins isolated from HEK293 cell lysates or recombinant FLAG-HDAC3 isolated from insect cells, respectively. The HDAC8 enzymatic assay using recombinant FLAG-HDAC8 isolated from insect cells is done with a different substrate. About 4.5 ng/well FLAG-HDAC1 and 3.1 ng/well FLAG-HDAC6 (dependent on batches and specific activity) are incubated with 6 μM or 10 μM Ac-NH-GGK(Ac)-AMC substrate, respectively, for 3 h at 30° C. About 1.7 ng/well FLAG-HDAC3 is incubated with 6 μM Ac-NH-GGK(Ac)-AMC substrate for 2 h at 30° C., while approximately 130 ng/well FLAG-HDAC8 is incubated with 50 μM Ac-RHK(Ac)K(Ac)-AMC substrate for 3 h at 30° C. Termination of the reaction and all further steps are done as described for HeLa cell nuclear extracts as a source for HDAC enzymatic activity. The corresponding pIC50 values of the compounds for HDAC1, HDAC3, HDAC6 and HDAC8 inhibitory activity are determined from the concentration-effect curves by means of non-linear regression.

Test [2] has as its target T2, rHDAC8 (Homo sapiens, UniProt Q9BY41).
T2 construct: FLAG; made in house; host or cells: baculovirus-infected Sf21 insect cells
T2 sequence (Q9BY41 1-377): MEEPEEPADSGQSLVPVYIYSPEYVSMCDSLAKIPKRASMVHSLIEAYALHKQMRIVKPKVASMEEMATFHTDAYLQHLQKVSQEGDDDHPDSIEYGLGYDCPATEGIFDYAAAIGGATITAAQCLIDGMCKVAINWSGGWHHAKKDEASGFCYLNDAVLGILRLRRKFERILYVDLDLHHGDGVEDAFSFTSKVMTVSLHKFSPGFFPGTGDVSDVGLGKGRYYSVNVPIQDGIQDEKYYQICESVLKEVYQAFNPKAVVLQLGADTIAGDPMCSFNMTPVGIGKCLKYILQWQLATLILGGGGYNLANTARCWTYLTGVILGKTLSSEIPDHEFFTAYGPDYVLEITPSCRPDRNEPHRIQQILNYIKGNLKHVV
In words: rHDAC8 enzymatic assay (recombinant FLAG-HDAC8). Particulars: FLAG-HDAC8 from insect cells; 50 μM Ac-RHK(Ac)K(Ac)-AMC, 3 h at 30° C.; read-out: rHDAC8 [pIC50] (converted). It counts as biochemical.
Excerpt: as §1, §2, §3

Structures can show the parent of a compound that is named as a salt.

Consider `O=C(NO)c1ccc2c(c1)CCN(C(=O)C1CC1)C2` [Example 16, N-Hydroxy-2-(cyclopropylcarbonyl)-1,2,3,4-tetrahydroisoquinoline-6-carboxamide], for which the IC50 in test [1] was 1 to 100 nM; in test [2], 1000 to 10000 nM.

As for `O=C(NO)c1ccc2c(c1)CN(C(=O)Cc1ccccn1)CC2` [Example 21, N-Hydroxy-2-(pyridin-2-ylacetyl)-1,2,3,4-tetrahydroisoquinoline-7-carboxamide hydrochloride], the IC50 in test [1] was 1 to 100 nM; in test [2] it was 10 to 1000 nM.

Regarding `O=C(NO)c1ccc2c(c1)CCN(C(=O)Cc1c[nH]c3ccccc13)C2` [Example 1, N-Hydroxy-2-(indol-3-ylacetyl)-1,2,3,4-tetrahydroisoquinoline-6-carboxamide hydrochloride], the IC50 was 1 to 100 nM in test [1] and 1000 to 10000 nM in test [2].

Consider `COc1ccc2[nH]c(C(=O)N3CCc4ccc(C(=O)NO)cc4C3)cc2c1` [Example 24, N-Hydroxy-2-[(5-methoxy-1H-indol-2-yl)carbonyl]-1,2,3,4-tetrahydroisoquinoline-7-carboxamide], for which the IC50 in test [1] is 1 to 100 nM; in test [2], 10 to 1000 nM.

With `CNC(=O)N1CCc2cc(C(=O)NO)ccc2C1` [Example 4, N6-Hydroxy-N2-methyl-3,4-dihydroisoquinoline-2,6(1H)-dicarboxamide], the IC50 in test [1] was 1 to 100 nM; in test [2], 1000 to 10000 nM.

Take `O=C(NO)c1ccc2c(c1)CCN(C(=O)CCc1cccnc1)C2` [Example 7, N-Hydroxy-2-(3-pyridin-3-ylpropanoyl)-1,2,3,4-tetrahydroisoquinoline-6-carboxamide hydrochloride]: the figures for the IC50 in test [1] and in test [2] were 1 to 100 nM and 1000 to 10000 nM, respectively.

`CC(=O)N1CCc2cc(C(=O)NO)ccc2C1` [Example 12, 2-Acetyl-N-hydroxy-1,2,3,4-tetrahydroisoquinoline-6-carboxamide]: the IC50 was 100 to 1000 nM in test [1] and 1000 to 10000 nM in test [2].

Regarding `O=C(NO)c1ccc2c(c1)CN(C(=O)Cc1c[nH]c3ccccc13)CC2` [Example 18, N-Hydroxy-2-(1H-indol-3-ylacetyl)-1,2,3,4-tetrahydroisoquinoline-7-carboxamide], the values for the IC50 in test [1] and in test [2] were 1 to 100 nM and 10 to 1000 nM, respectively.

As to `COCCCNC(=O)N1CCc2cc(C(=O)NO)ccc2C1` [Example 5, N6-Hydroxy-N2-(3-methoxypropyl)-3,4-dihydroisoquinoline-2,6(1H)-dicarboxamide], the IC50 is 1 to 100 nM in test [1] and 1000 to 10000 nM in test [2].

For `O=C(NO)c1ccc2c(c1)CCN(C(=O)C1CCC1)C2` [Example 3, 2-(Cyclobutylcarbonyl)-N-hydroxy-1,2,3,4-tetrahydroisoquinoline-6-carboxamide], the IC50 in test [1] is 1 to 100 nM; in test [2] it was 1000 to 10000 nM.

For `COc1ccc2[nH]c(C(=O)N3CCc4cc(C(=O)NO)ccc4C3)cc2c1` [Example 15, N-Hydroxy-2-[(5-methoxy-1H-indol-2-yl)carbonyl]-1,2,3,4-tetrahydroisoquinoline-6-carboxamide], the IC50 in test [1] was 1 to 100 nM; in test [2] it was 1000 to 10000 nM.

Turning to `CN(C)CCCC(=O)N1CCc2cc(C(=O)NO)ccc2C1` [Example 9, 2-[4-(Dimethylamino)butanoyl]-N-hydroxy-1,2,3,4-tetrahydroisoquinoline-6-carboxamide hydrochloride], the IC50 is 100 to 1000 nM in test [1] and 1000 to 10000 nM in test [2].

`O=C(NO)c1ccc2c(c1)CCN(C(=O)C1CCOC1)C2` (stereo not shown) [Example 13, N-Hydroxy-2-(tetrahydrofuran-3-ylcarbonyl)-1,2,3,4-tetrahydroisoquinoline-6-carboxamide]: the results for the IC50 in test [1] and in test [2] were 100 to 1000 nM and 1000 to 10000 nM, respectively.

With `COCCCOC(=O)N1CCc2cc(C(=O)NO)ccc2C1` [Example 6, 3-Methoxypropyl-6-(hydroxycarbamoyl)-3,4-dihydroisoquinoline-2(1H)-carboxylate], the IC50 in test [1] is 100 to 1000 nM; in test [2], 1000 to 10000 nM.

With `O=C(NO)c1ccc2c(c1)CCN(C(=O)Cc1cccnc1)C2` [Example 8, N-Hydroxy-2-(pyridin-3-ylacetyl)-1,2,3,4-tetrahydroisoquinoline-6-carboxamide hydrochloride], the IC50 in test [1] was 100 to 1000 nM; in test [2], 1000 to 10000 nM.

Turning to `O=C(NO)c1ccc2c(c1)CN(C(=O)C1CCOC1)CC2` (stereo not shown) [Example 20, N-Hydroxy-2-(tetrahydrofuran-3-ylcarbonyl)-1,2,3,4-tetrahydroisoquinoline-7-carboxamide], the IC50 was 100 to 1000 nM in test [1] and 10 to 1000 nM in test [2].

Take `COCCOCC(=O)N1CCc2cc(C(=O)NO)ccc2C1` [Example 11, N-Hydroxy-2-[(2-methoxyethoxy)acetyl]-1,2,3,4-tetrahydroisoquinoline-6-carboxamide]: the IC50 in test [1] was 100 to 1000 nM; in test [2] it was 1000 to 10000 nM.

For `Cc1nccn1CC(=O)N1CCc2cc(C(=O)NO)ccc2C1` [Example 10, N-Hydroxy-2-[(2-methyl-1H-imidazol-1-yl)acetyl]-1,2,3,4-tetrahydroisoquinoline-6-carboxamide hydrochloride], the IC50 is 100 to 1000 nM in test [1] and 1000 to 10000 nM in test [2].

As to `O=C(NO)c1ccc2c(c1)CN(C(=O)Cc1cccnc1)CC2` [Example 19, N-Hydroxy-2-(pyridin-3-ylacetyl)-1,2,3,4-tetrahydroisoquinoline-7-carboxamide hydrochloride], the IC50 in test [1] was 1 to 100 nM; in test [2], 10 to 1000 nM.

For `Cc1ccc(C(=O)N2CCc3ccc(C(=O)NO)cc3C2)cc1` [Example 23, N-Hydroxy-2-(4-methylbenzoyl)-1,2,3,4-tetrahydroisoquinoline-7-carboxamide], the values for the IC50 in test [1] and in test [2] were 1 to 100 nM and 10 to 1000 nM, respectively.
